Source: US20240368209A1, “GEMCITABINE ANTICANCER DERIVATIVE AND ANTICANCER PHARMACEUTICAL USE” (ASCENTAWITS PHARMACEUTICALS, LTD., priority 2021, published 2024)
Read-outs that look alike come from different tables or passages of the source. Values belong to the compound of their own block, whether it stands above or below them.

Tests used:
[1] = test system: H460 non-small cell lung cancer human tumor cell line; assay: In vitro human tumor cell line cytotoxicity (proliferation) assay on H460, CTG, with or without AST-3021; type: cell-based; conditions: for IC50: Homo sapiens
Description: In vitro human tumor cell line cytotoxicity assay was used.
In vitro proliferation data on the H460 non-small cell lung cancer human tumor cell line (cell line which highly expresses AKR1C3) is reported below in the compound table.
IC50 values were obtained with the following steps:
Specifically, exponentially growing cells were seeded at a density of 2×10^3 cells/100 μL/well in a 96-well plate and incubated at 37° C. in 5% CO2, 95% air and 100% relative humidity for 24 hours. The test compound was administered alone: 24 hours after cell plating, the compound acted alone, 99 μL of growth medium per well was added, and 1 μL of the compound prepared at 200× was added, and the plate was shaken gently to ensure even mixing, then placed into an incubator of 37° C., 5% CO2. After further cultivation for 72 hours, the number of live cells was detected using CTG. The CTG detection method was as follows: the cell plate to be tested was placed at room temperature to equilibrate for 30 minutes, and 100 μL of medium per well was discarded. 25 μL of CTG reagent (CellTiter-Glo® kit) per well was added, and the plate was placed in a high-speed shaker to oscillate for 2 minutes, and placed at room temperature in the dark for 30 minutes. The chemiluminescence signal value was read using a multimode microplate reader, with a read time of 1000 ms.
Similarly, in order to further verify that the compounds were activated by human AKR1C3 (aldosterone reductase family 1 member C3), the effect of some of the compounds on the proliferation of H460 cancer cells was tested with pretreatment with a specific AKR1C3 enzyme inhibitor AST-3021 (3 μM). The detailed experimental procedure was as follows: 24 hours after cell plating, 98 μL of growth medium per well was added, and 1 μL of 200×compound AST-3021 was added to each well, and the plate was shaken gently to ensure even mixing, and then placed into an incubator; after 2 hours, 1 μL of the test compound prepared at 200× was added, and the plate was shaken gently to ensure even mixing and then laced into an incubator of 37° C., 5% CO2. The inhibitor used was compound 36, i.e.
in Flanagan et al., Bioorganic and Medicinal Chemistry (2014), page 962-977, and is referred to as AST-3021 in this invention. The values measured in this case are values corresponding to +AST-3021 IC50 (nM) in Table 1.
The value corresponding to +AST-3021 IC50 (nM) divided by the value corresponding to IC50 (nM) is the specific activation ratio. The relative magnitude of the specific activation ratio can be used to evaluate whether this compound is a cytotoxic compound activated by human AKR1C3 (aldosterone reductase family 1 member C3): when the specific activation ratio is less than 1, it is considered that the compound is not activated by human AKR1C3 (aldosterone reductase family 1 member C3); when the specific activation ratio is greater than 1, it is considered that the compound is activated by human AKR1C3 (aldosterone reductase family 1 member C3), and the higher the value, the higher the activation degree and the selectivity of AKR1C3.

[2] = test system: H460 cell line with high expression of AKR1C3 enzyme; conditions: cited from earlier work
[3] = intraperitoneal injection, once every 3 days, for four consecutive doses; literature; cited from earlier work
[4] = test system: HuPrime pancreatic cancer xenograft model PA1222; assay: In vivo pharmacodynamic experiment in HuPrime pancreatic cancer PA1222 PDX model; conditions: for Tumor volume (mm^3) (x ± S): Group 2, 80 mg/kg i.p.
H460 cancer cells = assay: Inhibition of H460 cancer cells in the presence or absence of AKR1C3 inhibitor AST-3021 (section 2.1); type: cell-based, human; conditions: for IC50: Homo sapiens
Description: The experimental scheme was as follows: • 1) H460 cell suspension was added to a 96-well plate with 100 μL per well at a cell density of 2000/well. • 2) Cells were incubated in an incubator of 37° C., 5% CO2 overnight. • 3) Compound treatment
Combined administration: 24 hours after cell plating, 98 μL of growth medium per well was added. 1 μL of AST-3021 was added to each well (final concentration 3 μM), and the plate was shaken gently to ensure even mixing, and then placed into an incubator; after 2 hours, 1 μL of the test compound at different concentrations was added, and the plate was shaken gently to ensure even mixing, and then placed into an incubator of 37° C., 5% CO2.
Administration of the drug alone: 24 hours after cell plating, 99 μL of growth medium per well was added.
In order to further verify that the compound was activated specifically by human AKR1C3 (aldosterone reductase family 1 member C3), the compound was added following the pretreatment of cells with the specific AKR1C3 enzyme inhibitor AST-3021 (3 μM), and the effect of the presence of AST-3021 on the proliferation of H460 cancer cells was tested
IC50 data of inhibitory effect of the compounds gemcitabine and H11 on H460 cancer cells in the presence or absence of the AKR1C3 inhibitor AST-3021 is shown in Table 2 and Table 3.

[5] = Plasma stability in rat plasma; conditions: for Remaining percentage (%): rat plasma
Description: 1 mM working solution of the test compound was prepared in DMSO. 1 mM working solution of propantheline was prepared in acetonitrile. 1 mM working solution of lovastatin (mevinolin) was prepared in DMSO. Propantheline was used as a positive control for human, monkey, dog, and mouse plasma stability tests. Lovastatin was a positive control for rat plasma stability test.
• A. 398 μL of plasma per well was added to the culture plate, and the plate was preheated at 37° C. for 15 minutes. • B. After preincubation, 2 μL of working solution (test solution or control solution) was added to the 398 μL plasma mentioned above, resulting in a final concentration of 5 μM. The final concentration of organic solvents was 0.5%. The test was conducted in duplicate. • C. The reaction sample was incubated at 37° C. • D. 50 μL was extracted from the reaction sample at 0, 15, 30, 60, and 120 minutes, respectively. […] 100 μL of supernatant was taken and transferred to a new plate. The supernatant was diluted with ultrapure water according to the LC-MS signal response and peak shape.
Samples were analyzed with LC-MS/MS. All calculations were conducted using Microsoft Excel. The peak area ratio was determined from the extracted ion chromatogram. • (1) The percentage of the remaining compound at each time point was calculated with the following formula: […]
wherein the slope value k was determined by linear regression of the natural logarithm of the remaining percentage of the parent drug vs. incubation time curve.

[6] = Plasma stability in dog plasma; type: in vitro ADME
Description: (§1) The final concentration of organic solvents was 0.5%. The test was conducted in duplicate. • C.
(§2) Samples were analyzed with LC-MS/MS. All calculations were conducted using Microsoft Excel.

[7] = Plasma stability in mouse plasma; type: in vitro ADME
Description: as §1, §2

[8] = Plasma stability in monkey plasma; type: in vitro ADME
Description: as §1, §2

[9] = Plasma stability in human plasma; type: in vitro ADME
Description: as §1, §2

[10] = NCI-H460, compound alone, 72 hours, read-out: IC50
[11] = NCI-H460, pretreatment with AKR1C3 inhibitor AST-3021 (3 μM), read-out: +AST-3021 IC50
[12] = Group 2, 80 mg/kg i.p. Q3D×4, Day 32

SMILES: CC(C)NP(=O)(OCc1ccc([N+](=O)[O-])c(Oc2ccc(-c3ccc(C(F)(F)F)cc3)cc2)c1)OCC1OC(n2ccc(N)nc2=O)C(F)(F)C1O (stereo not drawn) [Compound H39]
specific activation ratio (+AST-3021 IC50/IC50) [1]: 12.7
IC50 [1, 10]: 2.18 µM
IC50 [1, 11]: 27.7 µM

SMILES: CC(C)NP(=O)(OCc1ccc([N+](=O)[O-])c(Oc2ccc(-c3ccc(Cl)cc3)cc2)c1)OCC1OC(n2ccc(N)nc2=O)C(F)(F)C1O (stereo not drawn) [Compound H40]
specific activation ratio (+AST-3021 IC50/IC50) [1]: 86.9
IC50 [1, 10]: 0.194 µM
IC50 [1, 11]: 16.9 µM

SMILES: CC(C)NP(=O)(OCc1ccc([N+](=O)[O-])c(Oc2ccc(-c3ccc(Cl)cc3)c(F)c2)c1)OCC1OC(n2ccc(N)nc2=O)C(F)(F)C1O (stereo not drawn) [Compound H42]
specific activation ratio (+AST-3021 IC50/IC50) [1]: 333.5
IC50 [1, 10]: 0.0571 µM
IC50 [1, 11]: 19 µM

SMILES: CC(C)NP(=O)(OCc1ccc([N+](=O)[O-])c(Oc2ccc(-c3ccccc3F)cc2)c1)OCC1OC(n2ccc(N)nc2=O)C(F)(F)C1O (stereo not drawn) [Compound H43]
specific activation ratio (+AST-3021 IC50/IC50) [1]: 257.8
IC50 [1, 10]: 0.06 µM
IC50 [1, 11]: 15.5 µM

SMILES: CC(C)NP(=O)(OCc1ccc([N+](=O)[O-])c(Oc2ccc(-c3cccc(F)c3)cc2)c1)OCC1OC(n2ccc(N)nc2=O)C(F)(F)C1O (stereo not drawn) [Compound H44]
specific activation ratio (+AST-3021 IC50/IC50) [1]: 336.1
IC50 [1, 10]: 0.0513 µM
IC50 [1, 11]: 17.3 µM

SMILES: CCN(CCCCBr)P(=O)(OCc1ccc([N+](=O)[O-])c(Oc2ccc(-c3ccccc3)cc2)c1)OCC1OC(n2ccc(N)nc2=O)C(F)(F)C1O (stereo not drawn) [TH3057]
IC50 ([2]; with addition of AKR1C3 enzyme inhibitor): 5 µM
IC50 ([2]; without AKR1C3 enzyme inhibitor): 0.2 µM

SMILES: Nc1ccn([C@@H]2O[C@H](CO)[C@@H](O)C2(F)F)c(=O)n1 [gemcitabine]
MTD [3]: 120 mg/kg
Relative tumor volume (x ± S) [4, 12]: 0.06 ± 0.04
T/C (%) [4, 12]: 0.97%
TGI (%) [4, 12]: 99.03%
complete tumor inhibition rate [4, 12]: 60%
Tumor volume (x ± S) ([4]; Group 2, 80 mg/kg i.p. Q3D×4, Day 32, mean ± standard error): 6.79 ± 4.33
Tumor volume (mm^3) (x ± S) ([4]; day 0): 102.95 mm^3
Tumor volume (mm^3) (x ± S) ([4]; day 4): 104.07 mm^3
Tumor volume (mm^3) (x ± S) ([4]; day 7): 74.43 mm^3
Tumor volume (mm^3) (x ± S) ([4]; day 11): 38.92 mm^3
Tumor volume (mm^3) (x ± S) ([4]; day 14): 24.66 mm^3
Tumor volume (mm^3) (x ± S) ([4]; day 18): 17.66 mm^3
Tumor volume (mm^3) (x ± S) ([4]; day 21): 12.13 mm^3
Tumor volume (mm^3) (x ± S) ([4]; day 25): 10.23 mm^3
Tumor volume (mm^3) (x ± S) ([4]; day 28): 7.97 mm^3
Tumor volume (mm^3) (x ± S) ([4]; day 32): 6.79 mm^3
Specific activation ratio (H460 cancer cells; H460): 1.08
IC50 (H460 cancer cells; NCI-H460, 72 h, H460, 72 hours, read-out: IC50 (nmol/L) AST-3021 not added): 13.2 nmol/L
IC50 (H460 cancer cells; NCI-H460, H460, AST-3021 3 μM, read-out: IC50 (nmol/L) AST-3021 added): 14.2 nmol/L

SMILES: CC[C@H](C)C(=O)O[C@H]1C[C@@H](C)C=C2C=C[C@H](C)[C@H](CC[C@@H]3C[C@@H](O)CC(=O)O3)[C@H]21 [lovastatin, reference compound]
Remaining percentage (%) ([5]; 0 min, 5 μM, 37° C.): 100.00%
Remaining percentage (%) ([5]; 15 min): 5.27%
Remaining percentage (%) ([5]; 30 min): 0.52%
Remaining percentage (%) ([5]; 60 min): 0.45%
Remaining percentage (%) ([5]; 120 min): 0.34%
t1/2 ([5]; rat, plasma): 3.53 min

Remaining percentage (%) ([6]; 0 min, 5 μM, 37° C.): 100.00%
Remaining percentage (%) ([6]; 15 min): 101.04%
Remaining percentage (%) ([6]; 30 min): 87.98%
Remaining percentage (%) ([6]; 60 min): 85.64%
Remaining percentage (%) ([6]; 120 min): 66.64%
half-life at 5 µM ([6]; dog): 203 min
half-life at 5 µM [7]: 21.8 min
Remaining percentage (%) ([7]; 0 min, 5 μM, 37° C.): 100.00%
Remaining percentage (%) ([7]; 15 min): 69.89%
Remaining percentage (%) ([7]; 30 min): 43.11%
Remaining percentage (%) ([7]; 60 min): 15.28%
Remaining percentage (%) ([7]; 120 min): 2.03%
Remaining percentage (%) ([8]; 0 min, 5 μM, 37° C.): 100.00%
Remaining percentage (%) ([8]; 15 min): 90.53%
Remaining percentage (%) ([8]; 30 min): 77.57%
Remaining percentage (%) ([8]; 60 min): 70.39%
Remaining percentage (%) ([8]; 120 min): 49.22%
half-life at 5 µM ([8]; monkey): 121 min
Remaining percentage (%) ([9]; 0 min, 5 μM, 37° C.): 100.00%
Remaining percentage (%) ([9]; 15 min): 81.24%
Remaining percentage (%) ([9]; 30 min): 59.99%
Remaining percentage (%) ([9]; 60 min): 32.76%
Remaining percentage (%) ([9]; 120 min): 7.75%
half-life at 5 µM ([9]; human): 36.6 min
SMILES: CC(C)[N+](C)(CCOC(=O)C1c2ccccc2Oc2ccccc21)C(C)C [propantheline, reference compound]
